Experimental data reported in patent publication US20160257697A1, “THIOPHENE-SUBSTITUTED TETRACYCLIC COMPOUNDS AND METHODS OFUSE THEREOF FOR THE TREATMENT OF VIRAL DISEASES” (priority 2013, published 2016).
Where two headings read alike, the source gives them in different places.

How the values were obtained:
Assay in all cases: microbe, parasite or virus in culture
Format in all cases: cell-based, Hepatitis C virus (HCV)
[1] = tested on: HCV replicon 1B; conditions: Replicon Assay B
Procedure: (§1) In an alternate assay (“Replicon Assay B”), 1000 cells were seeded per well in a 384-well collagen coated black plate from Greiner bio-one (Cat #781946) in 5% FBS. Inhibitors of this invention were added at 24 h post-seeding, and the plates were incubated for 3 days. Cells were subsequently lysed with Qiagen lysis buffer (Cat #1062731) to extract the RNA. HCV replicon RNA level was measured by real-time PCR using the RNA-to-CT kit from Applied Biosystem (Cat #4392656) and genotype-specific primers and probes. The amplicon was located within NS5B. […] (SEQ. ID NO. 2); the probe sequence was FAM-labeled […] (SEQ. ID NO. 3).
(§2) The real-time RT-PCR reactions were run on ABI PRISM 7900HT or Viia7 Sequence Detection System using the following program: 48° C. for 30 minutes, 95° C. for 10 minutes, 40 cycles of 95° C. for 15 sec, 60° C. for 1 minutes.
(§3) Data for replicons 1A, 1AY93H and 2B were obtained using Replicon Assay A and data for replicons 1AQ30D and 1B were obtained using Replicon Assay B.

[2] = tested on: HCV replicon 1AQ30D; conditions: Replicon Assay B
Procedure: as §1, §2, §3

[3] = tested on: HCV replicon 1AY93H; conditions: Replicon Assay A
Outline: (§4)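 Compound is added to replicon cells plated at 2000 cells/well (0.5% DMSO, 5% FBS). After 3 days the cells are washed and lysed, and HCV RNA and cyclophilin mRNA are quantified by multiplex RT-PCR against a standard curve of known replicon total RNA.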

[4] = tested on: HCV replicon 1A; conditions: Replicon Assay A
Outline: as §4

[5] = tested on: HCV replicon 2B; conditions: Replicon Assay A
Outline: as §4

[6] = Hepatitis C virus, HCV replicon 1B
[7] = Hepatitis C virus, read-out: 1A Q30D IC50, HCV replicon 1A Q30D
[8] = Hepatitis C virus, read-out: 1A Y93H IC50, HCV replicon 1A Y93H
[9] = Hepatitis C virus, read-out: 2B IC50, HCV replicon 2B
[10] = read-out: 1A Q30D IC50, replicon 1AQ30D
[11] = read-out: 1A Y93H IC50, replicon 1AY93H
[12] = Hepatitis C virus, read-out: 1A Q30D IC50 (nM), replicon 1AQ30D
[13] = Hepatitis C virus, read-out: 1A Y93H IC50 (nM), replicon 1AY93H
[14] = Hepatitis C virus, read-out: 2B IC50 (nM), replicon 2B
[15] = read-out: 1A Y93H IC50, HCV replicon 1A Y93H
[16] = read-out: 2B IC50, HCV replicon 2B

## COC(=O)N[C@H](C(=O)N1CCC[C@H]1c1ncc(-c2cc(F)c3c(c2)OC(c2ccc(C(C)C)s2)n2c-3cc3cc(-c4cnc([C@@H]5CCCN5C(=O)[C@@H](NC(=O)OC)C(C)C)[nH]4)ccc32)[nH]1)C(C)C (single isomer, unassigned) [Compound 36]
[1]; replicon 1B
  IC50: 0.0011 nM
[2]; replicon 1AQ30D, read-out: 1A Q30D IC50
  IC50: 0.19 nM
[3]; replicon 1AY93H, read-out: 1A Y93H IC50
  IC50: 0.006 nM
[4]; replicon 1A
  IC50: 0.0017 nM
[5]; replicon 2B, read-out: 2B IC50
  IC50: 0.053 nM

## COC(=O)N[C@H](C(=O)N1CCC[C@H]1c1ncc(-c2cc(F)c3c(c2)OC(c2ccc(C4CC4)s2)n2c-3cc3cc(-c4cnc([C@@H]5CCCN5C(=O)[C@@H](NC(=O)OC)C5CC6(COC6)C5)[nH]4)ccc32)[nH]1)C(C)C (mixture of isomers) [Compound 531]
[1]; [6]
  IC50: 1.3 nM
[2]; [7]
  IC50: 3.98 nM
[3]; [8]
  IC50: 0.912 nM
[4]; Hepatitis C virus, HCV replicon 1A
  IC50: 0.00909 nM
[5]; [9]
  IC50: 4.32 nM

## COC(=O)NC(C(=O)N1CCC[C@H]1c1ncc(-c2ccc3c(c2)cc2n3C(c3ccc(C4CC4)s3)Oc3cc(-c4cnc([C@@H]5CCCN5C(=O)[C@@H](NC(=O)OC)C(C)C)[nH]4)cc(F)c3-2)[nH]1)C1CCO[C@H](C)C1 (single isomer, unassigned) [Compound 134]
[1]; replicon 1B
  IC50: 0.0026 nM
[2]; [10]
  IC50: 0.015 nM
[3]; [11]
  IC50: 0.002 nM
[4]; replicon 1A
  IC50: 0.0025 nM
[5]; read-out: 2B IC50, replicon 2B
  IC50: 0.003 nM

## COC(=O)N[C@H](C(=O)N1CCC[C@H]1c1ncc(-c2cc(F)c3c(c2)OC(c2ccc(C#N)s2)n2c-3cc3cc(-c4cnc([C@@H]5CCCN5C(=O)[C@@H](NC(=O)OC)C(C)C)[nH]4)ccc32)[nH]1)C(C)C (single isomer, unassigned) [Compound 17]
[1]; Hepatitis C virus, replicon 1B
  IC50: 0.0021 nM
[2]; [10]
  IC50: 2.91 nM
[3]; [11]
  IC50: 0.19 nM
[4]; Hepatitis C virus, replicon 1A
  IC50: 0.0026 nM
[5]; read-out: 2B IC50, replicon 2B
  IC50: 0.54 nM

## COC(=O)N[C@H](C(=O)N1CCC[C@H]1c1ncc(-c2cc(F)c3c(c2)OC(c2ccc(C4CC4)s2)n2c-3cc3cc(-c4cnc([C@@H]5CCCN5C(=O)[C@@H](NC(=O)OC)C5CCOCC5)[nH]4)ccc32)[nH]1)C1CCOCC1 (single isomer, unassigned) [Compound 279]
[1]; Hepatitis C virus, replicon 1B
  IC50: 0.0029 nM
[2]; [10]
  IC50: 0.92 nM
[3]; [11]
  IC50: 0.21 nM
[4]; Hepatitis C virus, replicon 1A
  IC50: 0.0023 nM
[5]; read-out: 2B IC50, replicon 2B
  IC50: 0.017 nM

## COC(=O)NC(C(=O)N1CCC[C@H]1c1ncc(-c2ccc3c(c2)cc2n3C(c3ccc(C4CC4)s3)Oc3cc(-c4cnc([C@@H]5CCCN5C(=O)[C@@H](NC(=O)OC)C(C)C)[nH]4)cc(F)c3-2)[nH]1)C1CCO[C@H](C)C1 (single isomer, unassigned) [Compound 139]
[1]; replicon 1B
  IC50: 0.0014 nM
[2]; [10]
  IC50: 1.03 nM
[3]; [11]
  IC50: 0.085 nM
[4]; replicon 1A
  IC50: 0.0019 nM
[5]; read-out: 2B IC50, replicon 2B
  IC50: 0.11 nM

## COC(=O)N[C@H](C(=O)N1CCC[C@H]1c1ncc(-c2cc(F)c3c(c2)OC(c2ccc(OC)s2)n2c-3cc3cc(-c4cnc([C@@H]5CCCN5C(=O)[C@@H](NC(=O)OC)C(C)C)[nH]4)ccc32)[nH]1)C(C)C (single isomer, unassigned) [Compound 20]
[1]; Hepatitis C virus, replicon 1B
  IC50: 0.0011 nM
[2]; [12]
  IC50: 0.38 nM
[3]; [11]
  IC50: 0.014 nM
[5]; read-out: 2B IC50, replicon 2B
  IC50: 0.051 nM

## COC(=O)NC(C(=O)N1CCC[C@H]1c1ncc(-c2ccc3c(c2)cc2n3C(c3ccc(C4CC4)s3)Oc3cc(-c4cnc([C@@H]5CCCN5C(=O)[C@@H](NC(=O)OC)C(C)C)[nH]4)cc(F)c3-2)[nH]1)C1C[C@@H](C)O[C@@H](C)C1 (some centres unmarked) [Compound 208]
[1]; Hepatitis C virus, replicon 1B
  IC50: 0.0032 nM
[2]; [12]
  IC50: 0.043 nM
[3]; [13]
  IC50: 0.008 nM
[4]; Hepatitis C virus, replicon 1A
  IC50: 0.0031 nM
[5]; [14]
  IC50: 0.005 nM

## COC(=O)N[C@H](C(=O)N1CCC[C@H]1c1ncc(-c2cc(F)c3c(c2)OC(c2ccc(C4CC4)s2)n2c-3cc3cc(-c4cnc([C@@H]5CCCN5C(=O)[C@@H](NC(=O)OC)C(C)C)[nH]4)ccc32)[nH]1)C(C)C (single isomer, unassigned) [Compound 5]
[2]; [12]
  IC50: 28.3 nM
[3]; [13]
  IC50: 0.95 nM
[4]; Hepatitis C virus, replicon 1A
  IC50: 0.0046 nM
[5]; [14]
  IC50: 2.08 nM

## COC(=O)N[C@H](C(=O)N1[C@@H]2C[C@@H]2C[C@H]1c1ncc(-c2cc(F)c3c(c2)OC(c2ccc(C4CC4)s2)n2c-3cc3cc(-c4cnc([C@@H]5C[C@H]6C[C@H]6N5C(=O)[C@@H](NC(=O)OC)C(C)C)[nH]4)ccc32)[nH]1)C(C)C (single isomer, unassigned) [Compound 88]
[1]; replicon 1B
  IC50: 0.0014 nM
[2]; [10]
  IC50: 0.3 nM
[3]; [11]
  IC50: 0.007 nM
[5]; read-out: 2B IC50, replicon 2B
  IC50: 0.59 nM

## COC(=O)NC(C(=O)N1CCC[C@H]1c1ncc(-c2ccc3c(c2)cc2n3C(c3ccc(C4CC4)s3)Oc3cc(-c4cnc([C@@H]5CCCN5C(=O)[C@@H](NC(=O)OC)C(C)C)[nH]4)cc(F)c3-2)[nH]1)C1CC(C)(C)OC(C)(C)C1 (single isomer, unassigned) [Compound 421]
[2]; [7]
  IC50: 0.126 nM
[3]; [15]
  IC50: 0.0127 nM
[4]; HCV replicon 1A
  IC50: 0.0023 nM
[5]; [16]
  IC50: 0.0184 nM

## COC(=O)N[C@H](C(=O)N1CCC[C@H]1c1ncc(-c2cc(F)c3c(c2)OC(c2ccc(C4CC4)s2)n2c-3cc3cc(-c4cnc([C@@H]5C[C@H]6C[C@H]6N5C(=O)[C@@H](NC(=O)OC)C5CCOCC5)[nH]4)ccc32)[nH]1)C(C)C (some centres unmarked) [Compound 653]
[1]; [6]
  IC50: 0.00155 nM
[2]; [7]
  IC50: 0.00911 nM
[3]; [8]
  IC50: 0.00135 nM
[5]; [9]
  IC50: 0.00144 nM

## COCC(C)(C)c1ccc(C2Oc3cc(-c4cnc([C@@H]5CCCN5C(=O)[C@@H](NC(=O)OC)C(C)C)[nH]4)cc(F)c3-c3cc4cc(-c5cnc([C@@H]6CCCN6C(=O)[C@@H](NC(=O)OC)C(C)C)[nH]5)ccc4n32)s1 (single isomer, unassigned) [Compound 399]
[2]; [12]
  IC50: 0.292 nM
[3]; [11]
  IC50: 0.0145 nM
[4]; Hepatitis C virus, replicon 1A
  IC50: 0.0027 nM
[5]; read-out: 2B IC50, replicon 2B
  IC50: 0.274 nM

## COC(=O)NC(C(=O)N1CCC[C@H]1c1ncc(-c2ccc3c(c2)cc2n3C(c3ccc(CC4CC4)s3)Oc3cc(-c4cnc([C@@H]5CCCN5C(=O)[C@@H](NC(=O)OC)C(C)C)[nH]4)cc(F)c3-2)[nH]1)C1CCOC(C)(C)C1 (single isomer, unassigned) [Compound 410]
[1]; HCV replicon 1B
  IC50: 0.0033 nM
[2]; read-out: 1A Q30D IC50, HCV replicon 1A Q30D
  IC50: 0.106 nM
[3]; [15]
  IC50: 0.0034 nM
[5]; [16]
  IC50: 0.0041 nM

## COC(=O)N[C@H](C(=O)N1CCC[C@H]1c1ncc(-c2cc(F)c3c(c2)OC(c2ccc(C(C)C)s2)n2c-3cc3cc(-c4cnc([C@@H]5CCCN5C(=O)[C@@H](NC(=O)OC)C5CCOCC5)[nH]4)ccc32)[nH]1)C(C)C (single isomer, unassigned) [Compound 345]
[2]; [12]
  IC50: 0.0235 nM
[3]; [11]
  IC50: 0.0012 nM
[5]; read-out: 2B IC50, replicon 2B
  IC50: 0.0072 nM

## COC(=O)N[C@H](C(=O)N1CCC[C@H]1c1ncc(-c2cc(F)c3c(c2)OC(c2csc(C4CC4)c2)n2c-3cc3cc(-c4cnc([C@@H]5CCCN5C(=O)[C@@H](NC(=O)OC)C(C)C)[nH]4)ccc32)[nH]1)C(C)C (single isomer, unassigned) [Compound 322]
[2]; [12]
  IC50: 0.82 nM
[3]; [11]
  IC50: 0.0297 nM
[5]; [14]
  IC50: 0.29 nM

## CCCc1ccc(C2Oc3cc(-c4cnc([C@@H]5CCCN5C(=O)[C@@H](NC(=O)OC)C(C)C)[nH]4)cc(F)c3-c3cc4cc(-c5cnc([C@@H]6CCCN6C(=O)[C@@H](NC(=O)OC)C(C)C)[nH]5)ccc4n32)s1 (some centres unmarked) [Compound 34]
[2]; [12]
  IC50: 0.16 nM
[3]; [13]
  IC50: 0.005 nM
[4]; Hepatitis C virus, replicon 1A
  IC50: 0.0028 nM
[5]; [14]
  IC50: 0.1 nM

## COC(=O)NC(C(=O)N1CCCC1c1ncc(-c2cc(F)c3c(c2)OC(c2ccc(C4CC4)s2)n2c-3cc3cc(-c4cnc(C5CCCN5C(=O)C(NC(=O)OC)C5CCOC(C)C5)[nH]4)ccc32)[nH]1)C(C)C (mixture of isomers) [Compound 849]
[1]; HCV replicon 1B
  IC50: 0.0029 nM
[2]; HCV replicon 1A Q30D, read-out: 1A Q30D IC50
  IC50: 0.029 nM
[4]; HCV replicon 1A
  IC50: 0.0023 nM
[5]; HCV replicon 2B, read-out: 2B IC50
  IC50: 0.005 nM
